Measurements published in patent US20250188040A1, “PHARMACEUTICAL COMPOSITIONS COMPRISING WRN HELICASE INHIBITORS” (Vividion Therapeutics, Inc., priority 2022, published 2025).
pIC50: −log10 of the molar value. Like-named read-outs stand apart in the source and are kept apart here.

Experiments:
[1] = target: T1, WRN C727 (Homo sapiens, UniProt Q14191); experiment: Target engagement, in vitro (lysate), OCI-AML2; assay type: binding; details: read-out: OCI-AML2 WRN C727 TE50 in vitro (lysate)
T1 construct: endogenous in cells; host or cells: OCI-AML2
T1 sequence (Q14191 whole entry): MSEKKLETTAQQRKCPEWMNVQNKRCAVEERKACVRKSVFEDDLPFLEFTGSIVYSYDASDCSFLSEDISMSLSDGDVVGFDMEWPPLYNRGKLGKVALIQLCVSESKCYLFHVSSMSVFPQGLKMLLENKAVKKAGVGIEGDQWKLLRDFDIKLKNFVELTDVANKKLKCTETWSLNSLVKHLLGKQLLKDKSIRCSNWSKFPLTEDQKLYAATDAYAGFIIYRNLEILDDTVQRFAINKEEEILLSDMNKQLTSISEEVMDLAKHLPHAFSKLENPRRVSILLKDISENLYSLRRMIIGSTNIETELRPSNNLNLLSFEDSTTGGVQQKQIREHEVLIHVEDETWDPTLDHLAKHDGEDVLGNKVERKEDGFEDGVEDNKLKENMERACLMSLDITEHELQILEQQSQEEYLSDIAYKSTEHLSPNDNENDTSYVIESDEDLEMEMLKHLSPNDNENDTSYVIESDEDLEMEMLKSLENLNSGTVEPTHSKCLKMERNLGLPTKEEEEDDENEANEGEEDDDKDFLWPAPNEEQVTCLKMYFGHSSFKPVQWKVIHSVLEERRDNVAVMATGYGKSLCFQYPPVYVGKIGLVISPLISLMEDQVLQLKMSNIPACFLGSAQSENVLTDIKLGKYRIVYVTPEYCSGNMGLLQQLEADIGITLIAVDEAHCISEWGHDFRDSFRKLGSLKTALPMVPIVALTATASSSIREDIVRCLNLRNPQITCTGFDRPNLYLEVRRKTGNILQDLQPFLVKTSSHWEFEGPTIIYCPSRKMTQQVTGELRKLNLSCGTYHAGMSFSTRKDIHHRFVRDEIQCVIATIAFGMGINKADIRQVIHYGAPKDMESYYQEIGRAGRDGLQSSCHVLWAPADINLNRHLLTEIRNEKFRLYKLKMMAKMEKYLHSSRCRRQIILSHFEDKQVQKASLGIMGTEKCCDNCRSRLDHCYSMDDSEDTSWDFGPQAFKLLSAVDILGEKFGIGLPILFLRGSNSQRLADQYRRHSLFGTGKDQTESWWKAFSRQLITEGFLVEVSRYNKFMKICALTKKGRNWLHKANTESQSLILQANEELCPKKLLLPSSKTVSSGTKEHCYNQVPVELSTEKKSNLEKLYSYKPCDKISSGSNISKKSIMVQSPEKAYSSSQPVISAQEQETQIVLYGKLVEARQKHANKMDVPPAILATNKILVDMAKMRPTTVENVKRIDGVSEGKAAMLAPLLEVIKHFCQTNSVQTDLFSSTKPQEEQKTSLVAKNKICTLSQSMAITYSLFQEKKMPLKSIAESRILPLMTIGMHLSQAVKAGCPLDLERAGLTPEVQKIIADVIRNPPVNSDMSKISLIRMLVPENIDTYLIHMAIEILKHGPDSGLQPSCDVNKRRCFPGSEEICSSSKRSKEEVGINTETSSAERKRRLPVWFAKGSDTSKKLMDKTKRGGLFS
How it was run: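 Percent engagement of WRN C727 is expressed against DMSO-treated samples, measured by PRM mass spectrometry of streptavidin-enriched, probe-tagged tryptic peptides. Compound dose responses preceded probe labelling of solvent-exposed cysteines, in either living OCI-AML2 cells or their lysates.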

[2] = system: SW480 cells; experiment: Cell growth assay (CellTiter-Glo 2.0), SW480 MSS cell line; details: Homo sapiens, SW480, 120 h, read-out: Cell Growth Inhibition GI50 SW480
[3] = system: HCT 116 cells; experiment: Cell growth assay (CellTiter-Glo 2.0), HCT 116 MSI-H cell line; details: Homo sapiens, HCT-116, 120 h, read-out: Cell Growth Inhibition GI50 HCT-116
[4] = target: hWRN(519-1227)_C-H3CV-GFP-10His (Homo sapiens, UniProt Q14191); experiment: Helicase Assay for WRN Inhibition (ATP-dependent, fluorescence based)
hWRN(519-1227)_C-H3CV-GFP-10His, sequence (Q14191 519-1227): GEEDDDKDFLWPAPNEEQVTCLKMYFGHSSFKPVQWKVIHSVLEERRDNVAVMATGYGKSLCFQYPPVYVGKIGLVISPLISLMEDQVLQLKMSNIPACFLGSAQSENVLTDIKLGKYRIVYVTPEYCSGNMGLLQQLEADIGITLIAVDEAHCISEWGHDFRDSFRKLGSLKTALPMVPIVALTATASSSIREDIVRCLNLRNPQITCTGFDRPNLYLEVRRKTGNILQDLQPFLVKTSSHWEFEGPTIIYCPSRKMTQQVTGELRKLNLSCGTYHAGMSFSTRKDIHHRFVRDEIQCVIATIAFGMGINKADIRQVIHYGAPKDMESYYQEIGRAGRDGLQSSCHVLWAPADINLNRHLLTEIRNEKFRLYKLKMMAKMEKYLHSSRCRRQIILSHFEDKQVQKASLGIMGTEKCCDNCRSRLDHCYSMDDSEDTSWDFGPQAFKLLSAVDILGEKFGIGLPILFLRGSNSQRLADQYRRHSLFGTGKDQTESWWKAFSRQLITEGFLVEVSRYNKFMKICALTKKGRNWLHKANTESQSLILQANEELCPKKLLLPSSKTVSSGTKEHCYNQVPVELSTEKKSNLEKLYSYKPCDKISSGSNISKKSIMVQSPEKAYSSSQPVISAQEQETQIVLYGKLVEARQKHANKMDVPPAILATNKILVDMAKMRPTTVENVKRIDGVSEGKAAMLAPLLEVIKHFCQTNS

[5] = WRN Helicase IC50, 30 min preincubation with ATP, 30 min reaction

`CS(=O)(=O)/C=C/[C@H](CC1CC1)NC(=O)c1cnc(C2CC2)nc1Oc1ccccc1` [Example 28, (S,E)-2-cyclopropyl-N-(1-cyclopropyl-4-(methylsulfonyl)but-3-en-2-yl)-4-phenoxypyrimidine-5-carboxamide] gave a pIC50 [1] of 5.17, a GI50 [2] of 37200 nM and a GI50 [3] of 606 nM. It also gave a pIC50 [4, 5] of 5.82.
Work on `CS(=O)(=O)/C=C/[C@@H](NC(=O)c1cnc(C2CC2)nc1Oc1ccccc1)C1CCC1` [Example 29, (S,E)-N-(1-cyclobutyl-3-(methylsulfonyl)allyl)-2-cyclopropyl-4-phenoxypyrimidine-5-carboxamide] yielded a pIC50 [1] of 5.77, a GI50 [2] of 37400 nM and a GI50 [3] of 165 nM. It also gave a pIC50 [4, 5] of 6.19.
`CS(=O)(=O)/C=C/[C@@H](NC(=O)c1cnc(C2CC2)nc1Oc1ccccc1)C1CC(F)(F)C1` [Example 30, (S,E)-2-cyclopropyl-N-(1-(3,3-difluorocyclobutyl)-3-(methylsulfonyl)allyl)-4-phenoxypyrimidine-5-carboxamide] gave a pIC50 [1] of 5.84, a GI50 [2] of 16000 nM and a GI50 [3] of 120 nM. The pIC50 [4, 5] was 6.35.
With `CSC[C@@H](/C=C/S(C)(=O)=O)NC(=O)c1cnc(C2CC2)nc1Oc1ccccc1` [Example 31, (R,E)-2-cyclopropyl-N-(4-(methylsulfonyl)-1-(methylthio)but-3-en-2-yl)-4-phenoxypyrimidine-5-carboxamide] the pIC50 [1] was 5.49, the GI50 [2] was 28000 nM and the GI50 [3] was 630 nM. It also gave a pIC50 [4, 5] of 6.06.
For `CS(=O)(=O)/C=C/[C@@H](NC(=O)c1cnc(C2CC2)nc1Oc1ccccc1)C1CCOCC1` [Example 33, (S,E)-2-cyclopropyl-N-(3-(methylsulfonyl)-1-(tetrahydro-2H-pyran-4-yl)allyl)-4-phenoxypyrimidine-5-carboxamide], the pIC50 [1] was 5.33, the GI50 [2] was over 100000 nM and the GI50 [3] was 1300 nM. For the same compound, the pIC50 [4, 5] was 5.60.
Compound `CS(=O)(=O)/C=C/[C@@H](NC(=O)c1cnc(CC2CC2)nc1Oc1ccccc1)C1CC1` [Example 36, (S,E)-N-(1-cyclopropyl-3-(methylsulfonyl)allyl)-2-(cyclopropylmethyl)-4-phenoxypyrimidine-5-carboxamide] has a pIC50 [1] of 6.35, a GI50 [2] of 17700 nM and a GI50 [3] of 59 nM. It also gave a pIC50 [4, 5] of 6.73.
In the case of `CS(=O)(=O)/C=C/[C@@H](NC(=O)c1cnc(C(F)C2CC2)nc1Oc1ccccc1)C1CC1` (stereo partly drawn) [Example 37, N—((S,E)-1-cyclopropyl-3-(methylsulfonyl)allyl)-2-(cyclopropylfluoromethyl)-4-phenoxypyrimidine-5-carboxamide], the pIC50 [1] was 6.35, the GI50 [2] was 28600 nM and the GI50 [3] was 35.9 nM. For the same compound, the pIC50 [4, 5] was 6.62.
Work on `C[C@@H](/C=C/S(C)(=O)=O)NC(=O)c1cnc(C2(C)CC2)nc1Oc1ccccc1` [Example 38, (S,E)-2-(1-methylcyclopropyl)-N-(4-(methylsulfonyl)but-3-en-2-yl)-4-phenoxypyrimidine-5-carboxamide] yielded a pIC50 [1] of 6.10, a GI50 [2] of 11700 nM and a GI50 [3] of 157 nM. The pIC50 [4, 5] was 6.36.
`CC1(c2ncc(C(=O)N3CC(=CS(C)(=O)=O)C3)c(Oc3ccccc3)n2)CC1` [Example 39, (2-(1-methylcyclopropyl)-4-phenoxypyrimidin-5-yl)(3-((methylsulfonyl)methylene)azetidin-1-yl)methanone] showed a pIC50 [1] of 6.19, a GI50 [2] of 14000 nM and a GI50 [3] of 110 nM. The pIC50 [4] was 6.62.
`C[C@@H](/C=C/S(C)(=O)=O)NC(=O)c1cnc(CC2(C)CC2)nc1Oc1ccccc1` [Example 40, (S,E)-2-((1-methylcyclopropyl)methyl)-N-(4-(methylsulfonyl)but-3-en-2-yl)-4-phenoxypyrimidine-5-carboxamide] showed a pIC50 [1] of 5.46, a GI50 [2] of 49000 nM and a GI50 [3] of 1200 nM. It also gave a pIC50 [4, 5] of 5.57.
In the case of `CC1(Cc2ncc(C(=O)N3CC(=CS(C)(=O)=O)C3)c(Oc3ccccc3)n2)CC1` [Example 41, (2-((1-methylcyclopropyl)methyl)-4-phenoxypyrimidin-5-yl)(3-((methylsulfonyl)methylene)azetidin-1-yl)methanone], the pIC50 [1] was 5.69, the GI50 [2] was 33000 nM and the GI50 [3] was 720 nM. For the same compound, the pIC50 [4] was 5.85.
Work on `C[C@@H](/C=C/S(C)(=O)=O)NC(=O)c1cnc(C2(c3ccccc3)CC2)nc1Oc1ccccc1` [Example 42, (S,E)-N-(4-(methylsulfonyl)but-3-en-2-yl)-4-phenoxy-2-(1-phenylcyclopropyl)pyrimidine-5-carboxamide] yielded a pIC50 [1] of 5.35, a GI50 [2] of 5200 nM and a GI50 [3] of 355 nM. For the same compound, the pIC50 [4, 5] was 5.77.
`CS(=O)(=O)/C=C/CNC(=O)c1cnc(C2CCC2)nc1Oc1ccccc1` [Example 43, (E)-2-cyclobutyl-N-(3-(methylsulfonyl)allyl)-4-phenoxypyrimidine-5-carboxamide] was tested, and the pIC50 [1] was 4.73, the GI50 [2] was 7800 nM and the GI50 [3] was 670 nM. The pIC50 [4, 5] was 5.82.
`CS(=O)(=O)/C=C/[C@@H](NC(=O)c1cnc(C2CCC2)nc1Oc1ccccc1)C1CC1` [Example 45, (S,E)-2-cyclobutyl-N-(1-cyclopropyl-3-(methylsulfonyl)allyl)-4-phenoxypyrimidine-5-carboxamide] gave a pIC50 [1] of 6.96, a GI50 [2] of 13000 nM and a GI50 [3] of 36.7 nM. The pIC50 [4, 5] was 7.07.
`C[C@@H](/C=C/S(C)(=O)=O)NC(=O)c1cnc(CC2CCC2)nc1Oc1ccccc1` [Example 53, (S,E)-2-(cyclobutylmethyl)-N-(4-(methylsulfonyl)but-3-en-2-yl)-4-phenoxypyrimidine-5-carboxamide] was tested, and the pIC50 [1] was 4.84, the GI50 [2] was over 10000 nM and the GI50 [3] was 970 nM. The pIC50 [4, 5] was 5.44.
With `C[C@@H](/C=C/S(C)(=O)=O)NC(=O)c1cnc(CC2CCCC2)nc1Oc1ccccc1` [Example 54, (S,E)-2-(cyclopentylmethyl)-N-(4-(methylsulfonyl)but-3-en-2-yl)-4-phenoxypyrimidine-5-carboxamide] the pIC50 [1] was 4.30, the GI50 [2] was over 10000 nM and the GI50 [3] was 770 nM. For the same compound, the pIC50 [4, 5] was 5.59.
`C[C@@H](/C=C/S(C)(=O)=O)NC(=O)c1cnc(C2CC3(CC3)C2)nc1Oc1ccccc1` [Example 55, (S,E)-N-(4-(methylsulfonyl)but-3-en-2-yl)-4-phenoxy-2-(spiro[2.3]hexan-5-yl)pyrimidine-5-carboxamide] showed a pIC50 [1] of 5.06, a GI50 [2] of 6200 nM and a GI50 [3] of 150 nM. The pIC50 [4, 5] was 6.04.
`CC(C)(C)c1ncc(C(=O)N2CC(=CS(=O)(=O)C3CCOCC3)C2)c(Oc2ccccc2)n1` [Example 62, (2-(tert-butyl)-4-phenoxypyrimidin-5-yl)(3-(((tetrahydro-2H-pyran-4-yl)sulfonyl)methylene)azetidin-1-yl)methanone] showed a pIC50 [1] of 5.39, a GI50 [2] of 13200 nM and a GI50 [3] of 265 nM. For the same compound, the pIC50 [4] was 6.19.
Work on `COC[C@@H](/C=C/S(C)(=O)=O)NC(=O)c1cnc(C(C)(C)C)nc1Oc1ccccc1` [Example 63, (R,E)-2-(tert-butyl)-N-(1-methoxy-4-(methylsulfonyl)but-3-en-2-yl)-4-phenoxypyrimidine-5-carboxamide] yielded a pIC50 [1] of 6.30, a GI50 [2] of 31000 nM and a GI50 [3] of 30.6 nM. It also gave a pIC50 [4, 5] of 7.06.
In the case of `COC[C@H](/C=C/S(C)(=O)=O)NC(=O)c1cnc(C(C)(C)C)nc1Oc1ccccc1` [Example 64, (S,E)-2-(tert-butyl)-N-(1-methoxy-4-(methylsulfonyl)but-3-en-2-yl)-4-phenoxypyrimidine-5-carboxamide], the pIC50 [1] was under 4.00, the GI50 [2] was 36000 nM and the GI50 [3] was 2300 nM. It also gave a pIC50 [4, 5] of 5.07.
`CC(C)(C)c1ncc(C(=O)N[C@H](/C=C/S(C)(=O)=O)CC2CC2)c(Oc2ccccc2)n1` [Example 65, (S,E)-2-(tert-butyl)-N-(1-cyclopropyl-4-(methylsulfonyl)but-3-en-2-yl)-4-phenoxypyrimidine-5-carboxamide] was tested, and the pIC50 [1] was 5.93, the GI50 [2] was 25400 nM and the GI50 [3] was 87 nM. The pIC50 [4, 5] was 6.52.
Compound `CC(C)(C)c1ncc(C(=O)N[C@H](/C=C/S(C)(=O)=O)C2CCC2)c(Oc2ccccc2)n1` [Example 66, (S,E)-2-(tert-butyl)-N-(1-cyclobutyl-3-(methylsulfonyl)allyl)-4-phenoxypyrimidine-5-carboxamide] has a pIC50 [1] of 6.42, a GI50 [2] of 21800 nM and a GI50 [3] of 30.2 nM. The pIC50 [4, 5] was 6.95.
In the case of `CC(C)(C)c1ncc(C(=O)N[C@H](/C=C/S(C)(=O)=O)C2CC(F)(F)C2)c(Oc2ccccc2)n1` [Example 67, (S,E)-2-(tert-butyl)-N-(1-(3,3-difluorocyclobutyl)-3-(methylsulfonyl)allyl)-4-phenoxypyrimidine-5-carboxamide], the pIC50 [1] was 6.30, the GI50 [2] was 9780 nM and the GI50 [3] was 43.9 nM. The pIC50 [4, 5] was 6.85.
In the case of `CSC[C@@H](/C=C/S(C)(=O)=O)NC(=O)c1cnc(C(C)(C)C)nc1Oc1ccccc1` [Example 68, (R,E)-2-(tert-butyl)-N-(4-(methylsulfonyl)-1-(methylthio)but-3-en-2-yl)-4-phenoxypyrimidine-5-carboxamide], the pIC50 [1] was 6.00, the GI50 [2] was 31400 nM and the GI50 [3] was 230 nM. For the same compound, the pIC50 [4, 5] was 6.74.
In the case of `CO[C@H](C)[C@@H](/C=C/S(C)(=O)=O)NC(=O)c1cnc(C(C)(C)C)nc1Oc1ccccc1` [Example 69, 2-(tert-butyl)-N-((3R,4R,E)-4-methoxy-1-(methylsulfonyl)pent-1-en-3-yl)-4-phenoxypyrimidine-5-carboxamide], the pIC50 [1] was 4.96, the GI50 [2] was 51600 nM and the GI50 [3] was 1220 nM. The pIC50 [4, 5] was 5.47.
Compound `CC(C)(C)c1ncc(C(=O)N[C@H](/C=C/S(C)(=O)=O)C2CCOCC2)c(Oc2ccccc2)n1` [Example 70, (S,E)-2-(tert-butyl)-N-(3-(methylsulfonyl)-1-(tetrahydro-2H-pyran-4-yl)allyl)-4-phenoxypyrimidine-5-carboxamide] has a pIC50 [1] of 6.10, a GI50 [2] of over 58700 nM and a GI50 [3] of 130 nM. The pIC50 [4, 5] was 6.62.
